{
  "source": "patent US10561379B2",
  "about": "“In vivo positron emission tomography-based perfusion/blood pool imaging using labeled erythrocytes” (H. LEE MOFFITT CANCER CENTER AND RESEARCH INSTITUTE, INC., priority 2016, dated 2020)",
  "key": {"human RBCs": {"test_system": "human RBCs", "assay": "FDG uptake by human RBCs (% total FDG incorporation, dose calibrator counting)", "type": "cell-based", "conditions": "for mean % total FDG incorporation: 30' 37° C. incubation with 37-74 MBq FDG (text b108)", "method": "[…] 30′, centrifuged 1000 g 10′, and washed twice in 4× volume 1×EDTA solution. […] Sample/wash aliquots were counted in an Atomlab 600 dose calibrator (Biodex) to measure % retained FDG.\nHuman red blood cell (RBC) preparation and FDG-RBC labeling: Packed human red blood cells collected in standard anticoagulant citrate dextrose (ACD) solution (either ≤24 hours post phlebotomy or ˜5 day post phlebotomy) were obtained from Zen-Bio, Inc. 370-740 Megabecquerel (MBq) (1 ml) USP grade 2-deoxy-2-(^18F)fluoro-D-glucose (FDG) were obtained from Cardinal Health. Vendor supplied human RBCs are centrifuged 1000 g 10′, and the remaining anticoagulant and buffy coat residual are gently aspirated. RBCs are then gently washed in a 4× volume of filter sterilized “1×EDTA” solution (140 mM NaCl, 4 mM KCl, 2.5 mM Ethylenediaminetetraacetic acid dipotassium salt dihydrate (K2EDTA dihydrate)), centrifuged at 1000 g 10′, and the wash is manually aspirated. […] Samples are then centrifuged at 1000 g 10′ and the supernatant is carefully aspirated. RBCs are then washed and centrifuged twice with 4× volumes of 1×EDTA solution. For experiments characterizing residual unincorporated FDG, a 3rd wash/centrifugation step was performed. […] Aliquots from all samples and washes are counted with the Atomlab™ 600 dose calibrator (Biodex Medical Systems, Inc.)."}, "[1]": {"test_system": "splenectomized NSG immunodeficient mouse", "assay": "microPET imaging of mice injected with FDG-labeled human erythrocytes or free FDG (Example 2)", "type": "in vivo", "conditions": "tail vein catheter injection (≈47 microCuries FDG-labeled erythrocytes or ≈32 microCuries free FDG), 20-minute PET", "method": "Approximately 47 microCuries of FDG-labeled human erythrocytes were injected via tail vein catheter into a splenectomized NSG immunodeficient mouse. The mouse was placed into a Siemens INVEON microPET scanner, and 18-F PET imaging of the mouse was performed over a 20-minute time period.\nApproximately 32 microCuries of free FDG were injected via tail vein catheter into a second splenectomized NSG immunodeficient mouse. The mouse was placed into the Siemens INVEON microPET scanner, and 18-F PET imaging of the mouse was performed over a 20-minute time period."}, "human red blood cells": {"test_system": "human red blood cells", "assay": "FDG labeling of human red blood cells, 5 minute incubation at room temperature (Example 1)", "type": "cell-based", "method": "150 microCuries of FDG in a 100 microliter volume was incubated with 250 microliters of human red blood cells to a final solution volume of 500 microliters (NaCl/KCl/EDTA solution contains 140 mM NaCl, 4 mM KCl, 2.5 mM K2EDTA dihydrate). FDG incubation duration=5 minutes at room temperature. Triplicate samples were used. Samples were centrifuged 1000 g 10 minutes after 5 minute FDG incubation, and RBC pellet was washed twice with 1.0 ml of NaCl/KCl/EDTA solution. A sample of the collected supernatant and a pellet sample was counted in a gamma counter with 18-F gating. 3% incorporation rate=4.5 microCurie of incorporated FDG/250 microliters of human red blood cell=18 microCurie of FDG/1 ml human red blood cells. Thus, 60 milliliters of whole blood from a patient should yield approximately 432-486 microCuries of FDG labeled red blood cells. (Assumes average 40% female hematocrit and 45% male hematocrit)."}, "[2]": {"test_system": "splenectomized NSG immunodeficient mice", "assay": "ECG-gated whole body microPET/CT imaging of NSG immunodeficient mice", "type": "in vivo, mouse", "conditions": "for time activity curve (TAC) of the heart, pattern: observation period 20-30 minutes; for anatomic distribution of FDG in the heart (fused microPET/CT images) / whole body distribution of FDG activity on microPET image / urinary excretion of FDG (kidneys, bladder) on microPET image: tail vein injection; for whole body distribution of FDG activity on microPET image: injected activity differs per figure", "method": "4-6 wk old splenectomized NSG immunodeficient mice (Jax Lab) were fasted O/N and phlebotomized (200-250 μl), prior to microPET imaging with an INVEON PET/CT preclinical scanner (Siemens). […]\nPET images were analyzed with INVEON workstation software (Siemens). Patlak compartment plot option was chosen. For 3D PET and 4D PET data sets, VOIs were selected manually based on corresponding CT images: heart, leg muscle, liver, kidney and brain.\nECG-gated whole body microPET imaging of NSG immunodeficient mice: 4-6 week old splenectomized NOD scid gamma (NSG™) immunodeficient mice were obtained from The Jackson Laboratory. Mice were placed in specialized housing for immunodeficient mouse in the Moffitt Cancer Center (MCC) vivarium. Approval for all animal experimentation was first obtained from the University of South Florida (USF) Institutional Animal Care and Use Committee (IACUC). All animal experimentation was performed in accordance to federal regulations and USF IACUC principles and procedures. Animal imaging was performed in the MCC Small Animal Imaging Laboratory with an INVEON PET/CT (Siemens Medical Inc., Knoxville, Tenn.) preclinical scanner. Mice are first fasted the night before microPET imaging and undergo phlebotomy of ≈200-250 μl whole blood via retro-orbital venous plexus puncture immediately prior to microPET imaging. Blood glucose from the phlebotomized blood is measured. A tail vein microcatheter is placed in each mouse under inhalational isoflurane anesthesia. […] The PET part of the system has 64 detector blocks with total field of view (FOV) 12.7 cm and a spatial resolution of 1.4 mm. […] The ECG signal in each mouse was detected with three flat electrodes placed in two front and one rear limbs of each animal (ground lead on a rear leg). […] The threshold for TTL cardiac gating signals was set in a rising mode of R-wave peak. The PET list-mode data were reconstructed using 3D-OSEM iterative algorithm with four iterations and eight subsets, with a final image volume of 256×256×256 voxels. Voxel effective dimensions were 1.4×1.4×1.4 mm. For each animal there are three data sets: standard 3-dimensional (3D) PET reconstruction, resulting in a motion-time average 3D PET image; dynamic 3D PET reconstruction with 30 frames; and the phase-based 4-dimensional (regular 3-dimensional plus time, 4D) PET cardiac reconstruction, with four cardiac gates binning. In all cases, CT attenuation correction was applied to the PET images.\nPET images of the mice were analyzed using INVEON Workstation Software (Siemens Medical Inc., Knoxville, Tenn.). Vendor software-supplied Patlak compartment plot option was selected (Patlak et al., 1983). For 3D PET and 4D PET data sets multiple volumes of interest (VOI) were selected manually based on corresponding CT images including: heart, leg muscle, liver, kidney and brain. […] Dynamic activity curves were plotted for VOIs using dynamic 3D PET data set for each animal. The 4D PET data were used for defining cardiac function. First the heart was segmented on CT images based on anatomical features, after that segmented volume (cardiac PET VOI) was transferred into co-registered PET images."}},
  "data": [
    {"substance": "2-deoxy-2-(^18F)fluoro-D-glucose [FDG]", "values": [
      {"measurement": "FDG incorporated in packed RBCs on clinical translation of the labeling/wash protocol", "setting": "human RBCs; 10 ml's packed RBCs, initial 740 MBq FDG, inventor's prediction", "value": "up to 370 MBq"},
      {"measurement": "mean % total FDG incorporation", "setting": "human RBCs; 250 μl 1 day old RBCs", "value": "85.3%±1.8%"},
      {"measurement": "% total FDG incorporation", "setting": "human RBCs; 250 μl 1 day old human RBCs, 37° C., 30' (text b110)", "value": "73.3%±3.6%"},
      {"measurement": "% total FDG incorporation", "setting": "human RBCs; 250 μl 1 day old human RBCs, 37° C., 30 minutes (time course)", "value": "78.3%±0.9"},
      {"measurement": "% total FDG incorporation", "setting": "human RBCs; 250 μl 1 day old human RBCs, 37° C., 1 hour (time course)", "value": "85.0%±0.0%"},
      {"measurement": "% total FDG incorporation", "setting": "human RBCs; 250 μl 1 day old human RBCs, 37° C., 2 hours (FIG. 3 legend)", "value": "73.3%±3.6%"},
      {"measurement": "% total FDG incorporation", "setting": "human RBCs; 250 μl 1 day old human RBCs, 37° C., 2 hours (time course)", "value": "85.3%±0.3%"},
      {"measurement": "% total FDG incorporation", "setting": "human RBCs; 250 μl 1 day old human RBCs, 2 hours (FIG. 4 legend)", "value": "85.3%±1.8%"},
      {"measurement": "% total FDG incorporation", "setting": "human RBCs; 250 μl 1 day old human RBCs, room temperature (~25° C.), 2 hours", "value": "10.3%±1.1%"},
      {"measurement": "% total FDG incorporation", "setting": "human RBCs; 250 μl 5 day old human RBCs, 2 hours (FIG. 4 legend)", "value": "3.3%±0.2%"},
      {"measurement": "mean % total FDG incorporation", "setting": "human RBCs; 5 day old RBCs", "value": "3.3%±0.2%"},
      {"measurement": "internal FDG uptake (in words)", "setting": "human RBCs; human RBCs collected and used ≈5 days after phlebotomy", "value": "negligible rate of internal FDG uptake"},
      {"measurement": "tracer distribution on PET image", "setting": "[1]", "value": "majority of free FDG uptake is seen in the heart muscle, bladder, and kidneys"},
      {"measurement": "incorporation rate", "setting": "human red blood cells; 150 microCuries FDG, 250 microliters human red blood cells, 5 minutes at room temperature", "value": 3, "unit": "%"},
      {"measurement": "FDG/1 ml human red blood cells", "setting": "human red blood cells; 5 minutes at room temperature", "value": 18, "unit": "microCurie"},
      {"measurement": "incorporated FDG/250 microliters of human red blood cell", "setting": "human red blood cells; 5 minutes at room temperature, 150 microCuries FDG", "value": 4.5, "unit": "microCurie"},
      {"measurement": "FDG labeled red blood cells yielded from 60 milliliters of whole blood from a patient", "setting": "human red blood cells; extrapolated, assumes 40% female and 45% male hematocrit", "value": "432-486 microCuries"},
      {"measurement": "time activity curve (TAC) of the heart, pattern", "setting": "[2]", "value": "increases steadily over the observation period of 20-30 minutes"},
      {"measurement": "time activity curve (TAC) of the heart, pattern", "setting": "[2]; listed as free FDG", "value": "steady increase in FDG activity over time"},
      {"measurement": "anatomic distribution of FDG in the heart (fused microPET/CT images)", "setting": "[2]", "value": "marked myocardial uptake of FDG in the left ventricle"},
      {"measurement": "whole body distribution of FDG activity on microPET image", "setting": "[2]; listed as free 18F-FDG", "value": "normal marked FDG uptake in the myocardium"},
      {"measurement": "whole body distribution of FDG activity on microPET image", "setting": "[2]; listed as free FDG", "value": "intense FDG accumulation in the myocardium and brain"},
      {"measurement": "anatomic distribution of FDG in the heart (fused microPET/CT images)", "setting": "[2]; listed as free 18F-FDG", "value": "intense physiologic FDG uptake by myocardium of the left ventricle"},
      {"measurement": "urinary excretion of FDG (kidneys, bladder) on microPET image", "setting": "[2]; listed as free 18F-FDG", "value": "physiologic FDG excretion into the kidneys and bladder"},
      {"measurement": "urinary excretion of FDG (kidneys, bladder) on microPET image", "setting": "[2]; listed as free FDG", "value": "marked urinary excretion in the kidneys and bladder"}
    ]}
  ]
}
